Several values for one entry are separate records, joined by “and”; a condition that tells them apart may be missing. Identical values can stand only once. Like-named read-outs stand apart in the source and are kept apart here.
Columns and labels:
[1] = system: Ophiocordyceps sp. BRM1 eIF4A iso4 Gly172Phe; assay: Fluorescence polarization assay, FAM-labeled [AG]10 RNA and recombinant eIF4A; format: binding
Method: (§1) The fluorescence polarization assay was performed as previously described ([Chen et al., 2021]). […] After incubation at room temperature for 30 min, the mixture was transferred to a black 384-well microplate (Corning), and the fluorescence polarization was measured by an Infinite F-200 PRO (Tecan). Under ADP + Pi conditions, 1 mM ADP (Fujifilm Wako Chemicals) and 1 mM Na2HPO4 were used as substitutes for AMP-PNP. The data were fitted to the Hill equation to calculate Kd values and visualized by Igor Pro v8.01 (WaveMetrics).

[2] = molecular target: Ophiocordyceps sp. BRM1 eIF4A iso4 WT Gly172; assay: as above; format: binding; conditions: for Kd: [AG]10 10 nM, compound 50 µM, read-out: Kd between eIF4A protein and RNA
Method: as §1

[3] = [AG]10, ADP + Pi, RocA 50 µM, protein 50 μM
[4] = [AG]10 RNA, AMP-PNP, RocA, protein concentration 0.01 μM
[5] = [AG]10 RNA, AMP-PNP, RocA, protein concentration 0.05 μM
[6] = [AG]10 RNA, AMP-PNP, RocA, protein concentration 0.075 μM
[7] = [AG]10 RNA, AMP-PNP, RocA, protein concentration 0.5 μM
[8] = [AG]10 RNA, AMP-PNP, RocA, protein concentration 0.75 μM
[9] = [AG]10 RNA, AMP-PNP, RocA, protein concentration 1 μM
[10] = [AG]10 RNA, AMP-PNP, RocA, protein concentration 5 μM
[11] = [AG]10 RNA, AMP-PNP, RocA, protein concentration 7.5 μM
[12] = [AG]10 RNA, AMP-PNP, RocA, protein concentration 10 μM
[13] = [AG]10 RNA, AMP-PNP, RocA, protein concentration 25 μM
[14] = [AG]10 RNA, AMP-PNP, RocA, protein concentration 50 μM
[15] = [AG]10, ADP + Pi, RocA 50 µM, protein 0.01 μM
[16] = [AG]10, ADP + Pi, RocA 50 µM, protein 0.05 μM
[17] = [AG]10, ADP + Pi, RocA 50 µM, protein 0.075 μM
[18] = [AG]10, ADP + Pi, RocA 50 µM, protein 0.1 μM
[19] = [AG]10, ADP + Pi, RocA 50 µM, protein 0.5 μM
[20] = [AG]10, ADP + Pi, RocA 50 µM, protein 0.75 μM
[21] = [AG]10, ADP + Pi, RocA 50 µM, protein 1 μM
[22] = [AG]10, ADP + Pi, RocA 50 µM, protein 5 μM
[23] = [AG]10, ADP + Pi, RocA 50 µM, protein 7.5 μM
[24] = [AG]10, ADP + Pi, RocA 50 µM, protein 10 μM
[25] = [AG]10, ADP + Pi, RocA 50 µM, protein 25 μM
[26] = [AG]10 RNA, AMP-PNP, RocA, protein concentration 0.1 μM

## COc1ccc([C@@]23Oc4cc(OC)cc(OC)c4[C@]2(O)[C@H](O)[C@H](C(=O)N(C)C)[C@H]3c2ccccc2)cc1 [RocA, rocaglamide A]
[1]; [3]
  fluorescence polarization, Mean: 0.5273
  fluorescence polarization, replicates: 0.5765 and 0.5519 and 0.4536
[1]; [4]
  Fluorescence polarization, Replicate 1-3: 0.3525 and 0.2213 and 0.04098
  fluorescence polarization, Mean: 0.2049
[1]; [5]
  Fluorescence polarization, Replicate 1-3: 0.3852 and 0.2951 and 0.2787
  fluorescence polarization, Mean: 0.3197
[1]; [6]
  Fluorescence polarization, Replicate 1-3: 0.3197 and 0.3607 and 0.3361
  fluorescence polarization, Mean: 0.3388
[1]; [7]
  Fluorescence polarization, Replicate 1-3: 0.8689 and 0.8197
[1]; [8]
  Fluorescence polarization, Replicate 1-3: 0.8115 and 0.7295
  fluorescence polarization, Mean: 0.7514
[1]; [9]
  Fluorescence polarization, Replicate 1-3: 0.8279 and 0.8934
[1]; [10]
  Fluorescence polarization, Replicate 1-3: 0.8197 and 0.877
  fluorescence polarization, Mean: 0.8661
[1]; [11]
  Fluorescence polarization, Replicate 1-3: 0.9262 and 0.8361 and 0.8525
  fluorescence polarization, Mean: 0.8716
[1]; [12]
  Fluorescence polarization, Replicate 1-3: 0.8689 and 0.8525 and 0.8033
  fluorescence polarization, Mean: 0.8415
[1]; [13]
  Fluorescence polarization, Replicate 1-3: 0.8607 and 0.9262 and 0.877
  fluorescence polarization, Mean: 0.888
[1]; [14]
  Fluorescence polarization, Replicate 1-3: 0.9344 and 0.9672 and 0.9098
  fluorescence polarization, Mean: 0.9372
[2]; ADP + Pi (1 mM each)
  Kd: ~17 µM and 17 µM
[2]; AMP-PNP 1 mM
  Kd: 0.23 ± 0.05 µM
[2]; [15]
  fluorescence polarization, Mean: -0.01093
  fluorescence polarization, replicates: 0.0929
[2]; [16]
  fluorescence polarization, Mean: -0.1393
  fluorescence polarization, replicates: -0.2186
[2]; [17]
  fluorescence polarization, Mean: -0.09563
  fluorescence polarization, replicates: -0.03825 and -0.2268
[2]; [18]
  fluorescence polarization, Mean: -0.08743
  fluorescence polarization, replicates: -0.09563
[2]; [19]
  fluorescence polarization, Mean: -0.2951
  fluorescence polarization, replicates: -0.2432 and -0.2923 and -0.3497
[2]; [20]
  fluorescence polarization, Mean: -0.347
  fluorescence polarization, replicates: -0.3169 and -0.3661 and -0.3579
[2]; [21]
  fluorescence polarization, Mean: -0.2568
  fluorescence polarization, replicates: -0.1858 and -0.2104 and -0.3743
[2]; [22]
  fluorescence polarization, Mean: -0.112
  fluorescence polarization, replicates: -0.1448 and -0.1612
[2]; [23]
  fluorescence polarization, Mean: -0.1202
  fluorescence polarization, replicates: -0.08743
[2]; [24]
  fluorescence polarization, Mean: 0.002732
  fluorescence polarization, replicates: -0.005465
[2]; [25]
  fluorescence polarization, Mean: 0.2951
  fluorescence polarization, replicates: 0.265
[2]; [3]
  fluorescence polarization, Mean: 0.4044
  fluorescence polarization, replicates: 0.4208 and 0.429
[2]; [4]
  Fluorescence polarization, Replicate 1-3: -0.2186 and -0.2022 and -0.2268
  fluorescence polarization, Mean: -0.2158
[2]; [5]
  Fluorescence polarization, Replicate 1-3: 0.2732 and -0.005465 and -0.2268
  fluorescence polarization, Mean: 0.01366
[2]; [6]
  Fluorescence polarization, Replicate 1-3: -0.112 and -0.04645 and -0.2104
  fluorescence polarization, Mean: -0.123
[2]; [26]
  Fluorescence polarization, Replicate 1-3: 0.3224 and -0.194 and -0.1612
  fluorescence polarization, Mean: -0.01093
[2]; [7]
  Fluorescence polarization, Replicate 1-3: 0.2896
  fluorescence polarization, Mean: 0.2896
[2]; [8]
  Fluorescence polarization, Replicate 1-3: 0.4699 and 0.2732 and 0.1585
  fluorescence polarization, Mean: 0.3005
[2]; [9]
  Fluorescence polarization, Replicate 1-3: 0.4617 and 0.347 and 0.3306
  fluorescence polarization, Mean: 0.3798
[2]; [10]
  Fluorescence polarization, Replicate 1-3: 0.5683 and 0.3962 and 0.429
  fluorescence polarization, Mean: 0.4645
[2]; [11]
  Fluorescence polarization, Replicate 1-3: 0.5765 and 0.4372 and 0.4044
  fluorescence polarization, Mean: 0.4727
[2]; [12]
  Fluorescence polarization, Replicate 1-3: 0.4372 and 0.3962 and 0.3224
  fluorescence polarization, Mean: 0.3852
[2]; [13]
  Fluorescence polarization, Replicate 1-3: 0.6585 and 0.4372 and 0.4617
  fluorescence polarization, Mean: 0.5191
[2]; [14]
  Fluorescence polarization, Replicate 1-3: 0.5929 and 0.4863 and 0.4699
  fluorescence polarization, Mean: 0.5164

— article PMC9977294, “A parasitic fungus employs mutated eIF4A to survive on rocaglate-synthesizing Aglaia plants” (eLife, 2023)
